How the values were obtained:
Assay type in all cases: cell-based, Wistar sucking mice
[1] = test system: cardiomyocytes; test: Measurement of cell inhibition rate (MTT) on normal primary cardiomyocytes; details: 48 h; for inhibition at 300 µM: Cardiomyocyte; for Inhibition rate (%) of cardiomyocytes: 300 μM
Method: (§1) The isolation and culture of cardiomyocytes were performed by referring to the differential adhesion method (Kreider, A. Messing, H. Doan, S. U. Kim, R. P. Lisak and D. E. Pleasure, Enrichment of Schwann cell cultures from neonatal rat sciatic nerve by differential adhesion, Brain Res 2 (1981), pp. 433-444). Wistar sucking mice newborn within 24 h were used, sterilized at skin of ventrum with iodine tincture and ethanol, subjected to thoracotomy using scissors at subxiphoid median line with a deviation to left, heart was taken out after slant thoracotomy and placed in PBS precooled with ice; the heart was softly blown and beaten with 0.01 M PBS to remove blood cells and other tissues, then cut into pieces with 0.5 mm^3 size, washed with 0.01 M PBS repeatedly for 2-3 times; the pieces were placed in conical flask, added with 4 ml of 0.125% pancretin, 1 ml of 0.1% collagenase II (final concentrations separately being 0.1% and 0.02%), shaken in 37° C. water bath for 10 min, the supernatant was discarded; then 4 ml of 0.125% pancretin and 1 ml of 0.1% collagenase II again, shaken in 37° C. water bath for digestion for 10 min, the supernatant was sucked and transferred to a centrifuge tube, and the supernatant was added with DMEM containing 10% FBS to terminate digestion; the step of shaking and digestion in water bath was repeated for 3-4 times, until the tissue pieces were completely digested; the collected cell suspension was centrifuged under 1000 rpm for 10 min, the supernatant was removed, then a culture medium was added for resuspension; the resuspended cells were inoculated in a cell culture flask, placed in CO2 incubator at 37° C. for incubation for 1.5 h, then the culture medium was sucked out, countered under microscope, then DMEM culture medium containing 10% FBS was used to adjust cell density, inoculated in an amount of 1×10^4 to a 96-well plate, placed in 5% CO2 incubator at 37° C. for 24 h, then half medium was replaced, a culture medium containing 0.1% Brdu was supplementally added; then the medium was replaced once per 48 h, and primary cardiomyocytes were obtained after 4 days of cultivation.
The isolated primary culture of cardiomyocytes was inoculated in an amount of 10^4 cells per well to a 96-well plate, and the volume of each well was 100 μl (marginal wells were filled with sterile PBS). […] After continuous inoculation for 48 h, each well was added with 20 μl of MTT solution (5 mg/ml, formulated with PBS (pH=7.4), i.e., 0.5% MTT), and the cultivation was continued for 4 h. After the end of cultivation, culture medium in wells was carefully sucked out. Each well was added with 150 μl of DMSO, shaken at a low speed in a shaking table for 10 min, so that the crystal was sufficiently dissolved. The optical density (OD) value of each well was measured at wavelength of 550 nm by enzyme-linked immunoassay instrument, and each well was repeatedly measured for 5 times and the results were recorded.

[2] = test system: TG-induced cardiomyocytes apoptosis; test: Protection against TG-induced cardiomyocyte apoptosis (MTT)
Method: as §1
The isolated primary culture of cardiomyocytes was inoculated in an amount of 10^4 cells per well to a 96-well plate, and the volume of each well was 100 μl (marginal wells were filled with sterile PBS). After being cultivated in 5% CO2 and 37° C. incubator for 4 d, they were added with the compound of Formula I at different concentrations (0.3 μM, 1 μM, 3 μM, 10 μM, 30 μM, 100 μM), 3 double-wells were set for each concentration, at the same time, zero setting wells (culture medium, MTT, DMSO), and control wells (culture medium, DMSO) were also set. After continuous inoculation for 48 h, each well was added with 20 μl of MTT solution (5 mg/ml, formulated with PBS (pH=7.4), i.e., 0.5% MTT), and the cultivation was continued for 4 h. After the end of cultivation, culture medium in wells was carefully sucked out. Each well was added with 150 μl of DMSO, shaken at a low speed in a shaking table for 10 min, so that the crystal was sufficiently dissolved. The optical density (OD) value of each well was measured at wavelength of 550 nm by enzyme-linked immunoassay instrument, and each well was repeatedly measured for 5 times and the results were recorded.
Cardiomyocytes were subjected to the primary culture for 4 days according to the above method, and then added with thapsigargin (TG) to induce apoptosis. The compound of the present invention was added for pretreatment 30 min before inducing apoptosis. […] TG was formulated with DMSO, the mother liquid was of 4 mM; and the compound of the present invention was formulated with DMSO, and the mother liquid was of 150 mM. The cell survival rate was measured according to the above MTT method, so as to test the protection effects of the compound of the present invention on the TG-induced cardiomyocytes apoptosis, and the results are shown in Table 2. […]

[3] = test system: cardiomyocyte apoptosis induced by anoxia; test: Protection against anoxia-induced cardiomyocyte apoptosis (HCS fluorescence staining); details: for Nucleus area (%): Hoechst staining; for Mitochondrial transmembrane potential: MitoTracker Red
Method: as §1
Cardiomyocyte was obtained by primary culture according to Example 18, cell density 10^4/mL, each wall was added with 100 μL of suspension of the cells. The cells were incubated at 37° C., 5% CO2 environment for 96 h (replacing solution once per 48 h). After primary culture for 4 days, cell apoptosis was induced by placing in an anoxia incubator, the compounds of the present invention at different concentrations were added for pretreatment 30 min before inducing cell apoptosis, then placed in 37° C., 5% CO2-95% N2 incubator and cultured for 15.5 h. It was 30 min before the compound incubation finished, 50 μL of culture medium, 50 μL of Mitotracker/Hoechst solution, were added, and the cells were then continuously cultured at 37° C., 5% CO2-95% N2 for 30 min.
Each well was directly added with 100 μL of fixing solution, without sucking out the culture medium, incubated at room temperature in fume cupboard for 10 min. The pre-heated fixing solution was very important for keeping cell integrity.
The solution of each well was sucked out (the plate could be turned over), washed with 1× Wash Buffer (100 μL/well) once. Carefulness was kept during operation and washing procedure to maintain cell adhesion and integrity. Good results could be obtained by slowly sucking and releasing liquid. Wash Buffer was sucked out, 1× penetrating membrane solution (100 uL/well) was added, incubated at room temperature for 15 min. The penetrating membrane solution was sucked out, each well was washed once with 100 μL/well of 1× Wash Buffer. The Wash Buffer was sucked out, each well was added with 50 μL of Alexa Fluor 488 Phalloidin Solution, incubated at room temperature in dark for 30 min. The Alexa Fluor 488 Phalloidin solution was sucked out, washed with 1× Wash Buffer for three times, and the solution of the last time was kept in the well. […]

[4] = compound 1 μM + TG 0.4 uM, pretreatment 30 min
[5] = compound 3 μM + TG 0.4 uM, pretreatment 30 min
[6] = compound 10 μM + TG 0.4 uM, pretreatment 30 min
[7] = compound 0.3 μM + TG 0.4 uM, pretreatment 30 min

Molecule: CS/C(=N\C(NC(=O)/C=C/c1cccs1)C(Cl)(Cl)Cl)Nc1cccc2cccnc12 (stereo not drawn) [Example 14, (2E)-3-(2-thienyl)-N-[1-(8-quinolylamino)methylthiomethenylamino-2,2,2-trichloroethyl]-2-acrylamide]
- inhibition at 300 µM [1]: 8.34 ± 5.78%

Molecule: O=C(/C=C/c1cccs1)NC(NC(=S)Nc1ccccc1F)C(Cl)(Cl)Cl (stereo not drawn) [Example 8, (2E)-3-(2-thienyl)-N-[1-(2-fluoroanilino)thioformylamino-2,2,2-trichloroethyl]-2-acrylamide]
- inhibition at 300 µM [1]: 6.82 ± 1.21%

Molecule: CC(C)OCCCNC(=S)NC(NC(=O)/C=C/c1cccs1)C(Cl)(Cl)Cl (stereo not drawn) [Example 9, (2E)-3-(2-thienyl)-N-[1-(3-isopropoxypropylamino)thioformylamino-2,2,2-trichloroethyl]-2-acrylamide]
- inhibition at 300 µM [1]: 5.3 ± 0.95%

Molecule: COC(=O)c1ccccc1NC(=S)NC(NC(=O)/C=C/c1cccs1)C(Cl)(Cl)Cl (stereo not drawn) [Example 10, (2E)-3-(2-thienyl)-N-[1-(2-methoxyformylanilino)thioformylamino-2,2,2-trichloroethyl]-2-acrylamide]
- inhibition at 300 µM [1]: 3.24 ± 1.7%

Molecule: C/C=C(/C)C(=O)O[C@H]1C(C)=C2[C@H]([C@@H]1OC(=O)CCCCCCC)[C@@](C)(OC(C)=O)C[C@H](OC(=O)CCC)[C@@]1(O)[C@H]2OC(=O)[C@@]1(C)O [TG, thapsigargin, reference compound]
- Survival rate (%) of Cardiomyocyte ([2]; TG alone 0.4 uM (apoptosis inducer)): 59 ± 1.1%

Molecule: CC(C)NC(=S)NC(NC(=O)/C=C/c1cccs1)C(Cl)(Cl)Cl (stereo not drawn) [Example 7, (2E)-3-(2-thienyl)-N-[1-isopropylaminothioformylamino-2,2,2-trichloroethyl]-2-acrylamide]
- inhibition at 300 µM [1]: 1.32 ± 3.42%
- Survival rate (%) of Cardiomyocyte [2, 4]: 69 ± 5%
- Survival rate (%) of Cardiomyocyte [2, 5]: 70 ± 8%
- Survival rate (%) of Cardiomyocyte [2, 6]: 77 ± 11%

Molecule: COc1ccccc1NC(=S)NC(NC(=O)/C=C/c1cccs1)C(Cl)(Cl)Cl (stereo not drawn) [Example 4, (2E)-3-(2-thienyl)-N-[1-(2-methoxyanilino)thioformylamino-2,2,2-trichloroethyl]-2-acrylamide]
- inhibition at 300 µM [1]: 5.55 ± 2.29%

Molecule: O=C(/C=C/c1cccs1)NC(NC(=S)Nc1cccc2cccnc12)C(Cl)(Cl)Cl (stereo not drawn) [Example 1, (2E)-3-(2-thienyl)-N-[1-(8-quinolylamino)thioformylamino-2,2,2-trichloroethyl]-2-acrylamide]
- light flux ([3]; 10 μM): 1201.92 ± 29.95
- Nucleus area (%) ([3]; 10 μM): 112.61 ± 7.78%
- Mitochondrial transmembrane potential ([3]; 10 μM): 112.68 ± 1.46

Molecule: (2E)-3-(2-thienyl)-N-[1-(1-morpholinyl)thioformyl amino-2,2,2-trichloroethyl]-2-acrylamide [Example 12]
- Inhibition rate (%) of cardiomyocytes [1]: 10.44 ± 5.66%
- Survival rate (%) of Cardiomyocyte [2, 7]: 79 ± 7%
- Survival rate (%) of Cardiomyocyte [2, 4]: 80 ± 9%
- Survival rate (%) of Cardiomyocyte [2, 5]: 83 ± 11%
- Nucleus area (%) ([3]; 10 μM): 102.93 ± 5.12%
- Mitochondrial transmembrane potential ([3]; 10 μM): 133.11 ± 6.30

Molecule: O=C(/C=C/c1cccs1)NC(NC(=S)NCc1ccccc1)C(Cl)(Cl)Cl (stereo not drawn) [Example 5, (2E)-3-(2-thienyl)-N-(1-benzylaminothioformylamino-2,2,2-trichloroethyl)-2-acrylamide]
- inhibition at 300 µM [1]: 0.76 ± 4.04%
- Survival rate (%) of Cardiomyocyte [2, 7]: 82 ± 4%
- Survival rate (%) of Cardiomyocyte [2, 4]: 76 ± 8%
- Survival rate (%) of Cardiomyocyte [2, 5]: 74 ± 9%
- light flux ([3]; 0.3 μM): 1331.12 ± 53.30
- Nucleus area (%) ([3]; 0.3 μM): 120.23 ± 5.49%
- Mitochondrial transmembrane potential ([3]; 0.3 μM): 117.76 ± 1.87

Molecule: (2E)-3-(2-thienyl)-N-[1-(4-methylpiperazinyl)thioformylamino-2,2,2-trichloroethyl]-2-acrylamide [Example 13]
- Inhibition rate (%) of cardiomyocytes [1]: 1.66 ± 2.70%
- Survival rate (%) of Cardiomyocyte [2, 7]: 72 ± 3%
- Survival rate (%) of Cardiomyocyte [2, 4]: 71 ± 3%
- Survival rate (%) of Cardiomyocyte [2, 5]: 67 ± 3%
- Mitochondrial transmembrane potential ([3]; 3 μM): 116.41 ± 0.64

Molecule: O=C(/C=C/c1cccs1)NC(NC(=S)NC1CCCCC1)C(Cl)(Cl)Cl (stereo not drawn) [Example 6, (2E)-3-(2-thienyl)-N-(1-cyclohexylaminothio formylamino-2,2,2-trichloroethyl)-2-acrylamide]
- inhibition at 300 µM [1]: 5.54 ± 3.61%
- Survival rate (%) of Cardiomyocyte [2, 4]: 76 ± 7%
- Survival rate (%) of Cardiomyocyte [2, 5]: 70 ± 6%
- Survival rate (%) of Cardiomyocyte [2, 6]: 78 ± 9%
- light flux ([3]; 1 μM): 1077.08 ± 55.63
- Nucleus area (%) ([3]; 1 μM): 100.00 ± 4.63%
- Mitochondrial transmembrane potential ([3]; 1 μM): 112.92 ± 0.82

Molecule: O=C(/C=C/c1cccs1)NC(NC(=S)NC1CCCCCC1)C(Cl)(Cl)Cl (stereo not drawn) [Example 11, (2E)-3-(2-thienyl)-N-(1-cycloheptylaminothioformylamino-2,2,2-trichloroethyl)-2-acrylamide]
- inhibition at 300 µM [1]: 7.62 ± 5.77%

Reference: patent US9199978B2, “Acrylamide compounds and use thereof for inhibiting apoptosis” (CHINESE PLA GENERAL HOSPITAL, priority 2010, dated 2015)
